88 compounds from a melting point compilation (Tetko et al.; mined from patent text by program, amines drawn as free bases though some values may be those of a salt) can be followed below.

As usually defined, the melting point is the temperature of the solid-liquid transition. As to `Cc1ncccc1Cn1nnnc1-c1ccc(Cl)c(Cl)c1`, the melting point fell in the range of 176 to 178 °C.
In the case of `O=C(O)CCC(c1ccccc1)c1ccccc1F` (stereo not drawn) it was 105 °C; in that of `O=C(NCCCC(F)(F)F)Oc1ccc([N+](=O)[O-])cc1`, 118 to 120 °C.
To `O=C(Nc1ccncc1)c1ccc(OC(F)F)c2oc3ccccc3c12` belongs 230 °C; to `COc1ccc2cnc(N)nc2c1C1CCCC1`, 181 to 183 °C; to `COC(=O)C(C)Oc1cc(C)ccc1COc1ccc([N+](=O)[O-])c(F)c1` (stereo not drawn), 92 to 94 °C.
To `CC(=O)N1CCC(CCC(=O)c2ccc(N(C)C)cc2)CC1` belongs 158 to 160 °C; to `CN1Cc2c(-c3nc(C4CC4)no3)ncn2-c2cccc(Cl)c2C1=O`, 183 to 184 °C.
In turn, `COc1ccc(C(=O)[NH+]([O-])c2c(Cl)cncc2Cl)c2c1oc1ccc(C(F)(F)F)cc12` (stereo not drawn) returned a melting point of 272 °C.
Take `CN(C)CCN1Cc2cccc3cccc(c23)S1(=O)=O`: the melting point lay in the range of 97 to 98 °C.
To `CCCCc1nc(S(=O)c2ccccc2)c(C(=O)O)n1Cc1ccc(-c2ccccc2C(=O)O)cc1` (stereo not drawn) belongs 195 °C; to `Cn1ncc2c1-c1c(Oc3cccnc3)sc(C(=O)O)c1CC2`, 124 to 125 °C.
In the case of `COc1cc(OC)c2cc(S(=O)(=O)Cc3ccc(OC)c([N+](=O)[O-])c3)c(=O)oc2c1` it was 224 to 225 °C.
`CCOC(=O)c1nc(-c2ccncc2)[nH]c1-c1ccc(C)cc1` showed a melting point of 182 to 185 °C.
Regarding `Cc1ccn(Cc2ccc(Cl)c(Cl)c2)c(=O)c1C(=O)O`, the melting point was 219 to 221 °C.
Turning to `CCOn1c(SC)n[nH]c1=O`, the melting point is 99 °C.
In the case of `COc1ccc2c(c1)C(=O)c1ccc(-c3nnn[nH]3)cc1S2(=O)=O` it was 253 °C; in that of `COc1cccc(-c2ccc3[nH]c4c(ccc5cc[nH]c54)c3c2)c1`, 202 to 205 °C.
In the case of `COc1ccc2c(Cc3c(Cl)cncc3Cl)nnc(-c3ccccc3)c2c1` it was 206 to 208 °C.
To `CCN(CC)Cc1nc(Cn2cnc3c2c(=O)n(C)c(=O)n3C)no1` belongs 68 to 70 °C; to `CC(C)(CCc1nnn[nH]1)c1ccc(C(=O)Nc2cn3cc(Cl)ccc3n2)cc1`, 250 to 251 °C; to `Nc1noc(C(F)(F)F)c1-c1ccccc1`, 91.5 to 92 °C.
As for `Cc1cc(=O)n(C)c2ccc(C3=NNC(=O)CC3CO)cc12` (stereo not drawn), the melting point lay in the range of 222 to 223 °C.
To `CC12CCC3C(CC4OC45CC=CCC35C)C1CC=C2Br` (stereo not drawn) belongs 146 to 147 °C; to `C#CCN1CCCc2ccc(OC(=O)Nc3ccccc3Br)cc21`, 105 °C; to `CN(C)C(=O)N1CCc2ccc(S(N)(=O)=O)cc2CC1`, 192 to 193 °C.
In the case of `Cc1cc(-c2ccccc2)nc2nc(SCc3ccccc3)nn12` it was 154 to 155 °C.
To `COC1(c2cc(F)cc(Sc3ccc4c(c3)O[C@H](C)C(=O)N4C)c2)CCOCC1` belongs 107 to 109 °C; to `COC(=O)C(O)C1(O)CCC2C3CCC4=CC(=O)C=CC4(C)C3C(O)CC21C` (stereo not drawn), 171 to 173 °C.
`C#CCN(Cc1cc2c(=O)n(C)c(CN3CCN(CC)CC3)nc2cc1Cl)c1ccc(C(=O)OC(C)(C)C)cc1` showed a melting point of 145 to 146 °C.
To `CC(c1ccccc1)N1CC(CF)(C(=O)NCc2ccccc2)CC1=O` (stereo not drawn) belongs 114 to 116 °C; to `CC1(C)OCc2cc(Cc3c[nH]cn3)ccc2O1`, 150 to 170 °C; to `COC(=O)c1cc(N2CCCC2)c(Oc2cc(C)cc(C)c2)c(S(N)(=O)=O)c1`, 208 to 209 °C.
`O=C1CNC(=O)N1Cc1ccc2c(c1)N(C1CCN(CCc3ccc(F)cc3)CC1)CC2` showed a melting point of 191 to 193 °C.
To `Nc1ncc(Sc2ccc([N+](=O)[O-])cc2)s1` belongs 162 to 164 °C; to `COCCOc1ccc(/C=C(\C)C(=O)NS(=O)(=O)c2ccc(Cl)cc2)c(Oc2ncc(C(F)(F)F)cc2Cl)c1`, 146 °C; to `COc1ccc(COC(=O)NC(CO)Cc2ccc(O)cc2)cc1OC` (stereo not drawn), 152 to 155 °C.
As to `CCOc1nc2cccc(C(=O)O)c2n1Cc1ccc(-c2ccccc2-c2nnnn2C(c2ccccc2)(c2ccccc2)c2ccccc2)cc1`, the melting point was in the range of 168 to 170 °C.
In the case of `CCCCc1oc2ccc(C(=O)OC(C)C)cc2c1C(=O)c1ccc(OS(=O)(=O)C(F)(F)F)cc1` it was 100 to 101 °C; in that of `CCC(CC)Oc1cc(C)nc(Nc2c(C)cc(C)cc2C)c1NC(=O)CCl`, 79 to 82 °C; in that of `COC(=O)c1cccc(-c2nc(COc3ccc(COc4nn(-c5ccccc5)cc4/C=C/c4nc(N5CCOCC5)sc4C)cc3OC)c(C)o2)c1`, 183 to 184 °C.
In the case of `Cc1oc(-c2ccc(-c3ccc(-c4nc(CC(=O)OCc5ccccc5)c(C)o4)cc3)cc2)nc1CC(=O)OCc1ccccc1`, the melting point is 162 to 168 °C.
Compound `CC(=O)Nn1c(C)nc2cc(C(F)(F)F)ccc21` returned a melting point of 214 to 216 °C.
To `CCCCCN1C(=O)CC(c2ccc(C(F)(F)F)cc2)C(C(=O)OCC)C1=O` (stereo not drawn) belongs 112 to 115 °C; to `CCNCCCC(O)c1ccc(NS(C)(=O)=O)cc1` (stereo not drawn), 174 to 176 °C; to `CCCc1cc(Cl)c2oc(Cc3ccc(OC)cc3)c(C)c2c1OC(C)=O`, 119 to 120 °C.
The compound `C[C@@H]1CCCN1CCCOc1ccc(-c2cc(-c3ccccn3)c(=O)[nH]n2)cc1` displayed a melting point of 157 to 161 °C.
Regarding `CCOC(=O)c1coc(-c2ccc(CO)cc2)n1`, the melting point was 99 to 101 °C.
`Cc1cc(Cl)ccc1OCC(=O)Nc1ccc(S(N)(=O)=O)cc1` yielded a melting point of 218 to 220 °C.
Turning to `CC(C)CC(=O)CNC(=O)c1ccc(Cl)cc1`, the melting point is 127 to 129 °C.
To `Cc1nc(N(C)c2cccnc2)sc1-c1ccnc(Nc2ccc(N3CCOCC3)cc2)n1` belongs 194 to 195 °C.
To `CCCc1nc2c(N)nc3ccccc3c2s1` belongs 140 to 142 °C; to `COC(=O)c1cccc2c1c(C(C[N+](=O)[O-])C[N+](=O)[O-])cn2C`, 142 to 145 °C; to `Cc1cc(C)cc(C(=O)/C=C/c2nc[nH]c2C)c1`, 165 to 166 °C.
Turning to `BrC12CC3CC(CC(C3)C1=C1C3CC4CC(C3)CC1C4)C2`, the melting point lay in the range of 130 to 132 °C.
To `COC(=O)c1ccc(OCC(=O)c2cc3cc(C(C)C)ccc3o2)cc1` belongs 95 to 97 °C.
As to `Cn1ncnc1COc1nn2c(-c3cccs3)nncc2c1-c1ccccc1`, the melting point worked out at 209 °C.
In the case of `CC1=C(C)C(C)(OC(N)=O)N(c2ccc(Cl)c(Cl)c2)C1=O` (stereo not drawn), the melting point was in the range of 141 to 142 °C.
As to `COc1nc(C)cnc1NS(=O)(=O)c1cccnc1-c1ccc(OCC(C)(C)O)cc1`, the melting point lay in the range of 156 to 157 °C.
In the case of `ICC(c1ccccc1)c1ccccc1` it was 76 to 78 °C.
In the case of `O=C(SCC(Cc1ccccc1)C(=O)O)c1ccccc1` (stereo not drawn) it was 99 to 100 °C; in that of `CCOC(=O)c1cn(C23CC(C2)C3)c2cc(Cl)c(F)cc2c1=O`, 223 to 225 °C; in that of `Cc1nc2ccccn2c(=O)c1CCN1CCC(c2coc3cc(F)ccc23)CC1`, 160 °C.
In the case of `N#Cc1nc(N)c2ncn(C3OC(CO)C(O)C3O)c2n1` (stereo not drawn) it was 195 to 197 °C; in that of `O=c1[nH]c(=O)n(CCCCBr)c2nccnc12`, 154 to 155 °C.
As to `O=C1CCCN1[C@@H]1c2cc(Cl)ccc2OCC[C@H]1O` (relative stereo), the melting point was in the range of 186 to 188 °C.
On to `CC(C)C[C@H](N)C(=O)NCCCCCNC(=O)OCc1ccccc1`, for which the melting point was in the range of 145 to 146 °C.
In the case of `CN1CCC(C2c3ccccc3CCn3ncnc32)CC1` (stereo not drawn) it was 134 °C; in that of `CCC(C)Cc1ccc(OC(=O)c2ccc(O)cc2Cl)cc1` (single isomer, unassigned; (+)), 142 °C.
To `Cc1cccc(Nc2ncnc3cnc(NC4CCN(C(=O)N(C)C)CC4)nc23)c1` belongs 185 to 187 °C; to `CC(C)COC[C@H](CC(C)C)NC(=O)[C@H]1O[C@@H]1C(=O)OC(C)C`, 36 to 38 °C; to `CCc1cnc2c(NC(=O)c3c(Cl)cccc3Cl)cccc2c1C(C)=O`, 194 to 195 °C.
To `COc1cc(O)c2c(=O)c(OC)c(-c3ccc(OC(=O)C(O)C(O)C(=O)O)c(OC)c3)oc2c1` (stereo not drawn) belongs 179 to 180 °C; to `CC(C)(C)c1cc(C=O)cc(Br)c1O`, 126 °C.
Compound `CCOC(=O)Cc1sc(Sc2cccc(C(=O)O)n2)nc1C` came in with a melting point of 123 to 125 °C.
In turn, `COc1ccccc1-n1c(=O)[nH]c2c(C(N)=O)nc(-c3cccc([N+](=O)[O-])c3)nc21` displayed a melting point of 295 to 296 °C.
To `COC(=O)c1ccc(CO)cc1N` belongs 100 to 102 °C; to `Nc1cccc2c(-c3ccc(=O)[nH]n3)c(-c3ccccc3)nn12`, 157 to 159 °C.
As to `O=[N+]([O-])C=C1C2CC3CC(C2)CC1C3`, the melting point is 78 to 81 °C.
On to `CC1(C)NC(SCc2ccccc2)=NC1=S`, for which the melting point lay in the range of 133 to 134 °C.
On to `CCC(C(=O)N(C)C)n1cc(Br)cn1` (stereo not drawn), for which the melting point lay in the range of 97 to 100 °C.
To `CCOC(=O)Cc1nn(Cc2ccc(Br)c(Cl)c2)c(=O)c2ccccc12` belongs 142 to 145 °C; to `COc1ccc(S(=O)(=O)Nc2cccc3c2Nc2ccc(C#N)cc2CN3)cc1`, 105 to 107 °C.
To `CN(c1cccc2cc(-c3nc(CCl)cs3)[nH]c12)S(=O)(=O)c1cccs1` belongs 153 to 154 °C.
Consider `Cc1nnsc1C(=O)Nc1ccc(-n2nc(C(F)(F)F)cc2C(F)(F)F)c(C(F)(F)F)c1`, for which the melting point lay in the range of 134 to 136 °C.
To `Cc1nc2sccn2c(=O)c1CCN1CCC(=C2c3ccccc3CCn3ccnc32)CC1` belongs 182 °C; to `O=C(O)C1=Cc2ccccc2OC1C(F)(F)F` (stereo not drawn), 152 to 153 °C.
The compound `OCc1nn(-c2cccc(C(F)(F)F)c2)c2c1CCCC2` had a melting point of 93 to 94 °C.
